US20250042900A1 (priority 2022, published 2025)
pEC50: −log10 of the molar value. Structures can show the parent of a compound that is named as a salt.

Legend:
[1] = molecular target: CAV1.2 (Voltage-gated L-type calcium channel) (Homo sapiens, UniProt Q13936); assay: Ion channel assay, blocker format; format: cell-based; conditions: read-out: IC50 (μM) Antag./Blocker/Inhibitor
[2] = molecular target: T1, dopamine transporter (DAT) (Rattus norvegicus, UniProt P23977); assay: Dopamine Release Assay in rat synaptosomes; format: biochemical; conditions: rat synaptosomes preloaded with 30 nM [3H]DA; eight concentrations from 10 μM; four-parameter log-logistic fit; estimated
T1 construct: synaptosomes prepared from brains using standard procedures; from tissue; host or cells: caudate synaptosomes of male Sprague-Dawley rats

DAT and NET = conditions: neurotransmitter release; cited from earlier work
[3] = molecular target: Gamma-aminobutyric acid Receptor A (GABAA); assay: Ion channel assay, blocker format; format: cell-based; conditions: GABAA; Ion Channel; blocker; read-out: IC50 (μM) Antag./Blocker/Inhibitor
[4] = molecular target: Nicotinic acetylcholine Receptor α4 β2 (nAChR(a4/b2)) (Homo sapiens, UniProt P17787+P43681); assay: Ion channel assay, blocker format; format: cell-based; conditions: nAChR(a4/b2); Ion Channel; blocker; read-out: IC50 (μM) Antag./Blocker/Inhibitor
DAT and SERT = conditions: cited from earlier work
[5] = humans, after 75 or 125 mg MDMA; standard deviation 1.3 hours; cited from earlier work

T1 sequence (P23977 whole entry): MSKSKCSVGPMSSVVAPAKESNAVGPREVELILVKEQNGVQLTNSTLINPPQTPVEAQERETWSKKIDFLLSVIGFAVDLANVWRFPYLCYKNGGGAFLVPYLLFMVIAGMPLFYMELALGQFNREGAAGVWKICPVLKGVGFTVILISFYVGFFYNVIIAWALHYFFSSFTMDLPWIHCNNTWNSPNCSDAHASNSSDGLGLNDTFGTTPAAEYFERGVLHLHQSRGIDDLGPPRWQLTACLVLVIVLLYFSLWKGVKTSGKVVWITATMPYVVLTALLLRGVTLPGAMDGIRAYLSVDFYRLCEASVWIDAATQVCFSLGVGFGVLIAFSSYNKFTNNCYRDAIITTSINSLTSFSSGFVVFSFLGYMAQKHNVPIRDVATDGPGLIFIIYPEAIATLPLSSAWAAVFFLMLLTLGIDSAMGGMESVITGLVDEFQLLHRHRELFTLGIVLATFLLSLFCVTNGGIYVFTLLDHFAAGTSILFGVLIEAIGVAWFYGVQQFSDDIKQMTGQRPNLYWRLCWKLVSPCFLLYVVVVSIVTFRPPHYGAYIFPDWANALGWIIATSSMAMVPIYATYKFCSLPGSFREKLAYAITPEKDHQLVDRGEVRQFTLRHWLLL
Chain of CAV1.2 (Voltage-gated L-type calcium channel) (Q13936 whole entry): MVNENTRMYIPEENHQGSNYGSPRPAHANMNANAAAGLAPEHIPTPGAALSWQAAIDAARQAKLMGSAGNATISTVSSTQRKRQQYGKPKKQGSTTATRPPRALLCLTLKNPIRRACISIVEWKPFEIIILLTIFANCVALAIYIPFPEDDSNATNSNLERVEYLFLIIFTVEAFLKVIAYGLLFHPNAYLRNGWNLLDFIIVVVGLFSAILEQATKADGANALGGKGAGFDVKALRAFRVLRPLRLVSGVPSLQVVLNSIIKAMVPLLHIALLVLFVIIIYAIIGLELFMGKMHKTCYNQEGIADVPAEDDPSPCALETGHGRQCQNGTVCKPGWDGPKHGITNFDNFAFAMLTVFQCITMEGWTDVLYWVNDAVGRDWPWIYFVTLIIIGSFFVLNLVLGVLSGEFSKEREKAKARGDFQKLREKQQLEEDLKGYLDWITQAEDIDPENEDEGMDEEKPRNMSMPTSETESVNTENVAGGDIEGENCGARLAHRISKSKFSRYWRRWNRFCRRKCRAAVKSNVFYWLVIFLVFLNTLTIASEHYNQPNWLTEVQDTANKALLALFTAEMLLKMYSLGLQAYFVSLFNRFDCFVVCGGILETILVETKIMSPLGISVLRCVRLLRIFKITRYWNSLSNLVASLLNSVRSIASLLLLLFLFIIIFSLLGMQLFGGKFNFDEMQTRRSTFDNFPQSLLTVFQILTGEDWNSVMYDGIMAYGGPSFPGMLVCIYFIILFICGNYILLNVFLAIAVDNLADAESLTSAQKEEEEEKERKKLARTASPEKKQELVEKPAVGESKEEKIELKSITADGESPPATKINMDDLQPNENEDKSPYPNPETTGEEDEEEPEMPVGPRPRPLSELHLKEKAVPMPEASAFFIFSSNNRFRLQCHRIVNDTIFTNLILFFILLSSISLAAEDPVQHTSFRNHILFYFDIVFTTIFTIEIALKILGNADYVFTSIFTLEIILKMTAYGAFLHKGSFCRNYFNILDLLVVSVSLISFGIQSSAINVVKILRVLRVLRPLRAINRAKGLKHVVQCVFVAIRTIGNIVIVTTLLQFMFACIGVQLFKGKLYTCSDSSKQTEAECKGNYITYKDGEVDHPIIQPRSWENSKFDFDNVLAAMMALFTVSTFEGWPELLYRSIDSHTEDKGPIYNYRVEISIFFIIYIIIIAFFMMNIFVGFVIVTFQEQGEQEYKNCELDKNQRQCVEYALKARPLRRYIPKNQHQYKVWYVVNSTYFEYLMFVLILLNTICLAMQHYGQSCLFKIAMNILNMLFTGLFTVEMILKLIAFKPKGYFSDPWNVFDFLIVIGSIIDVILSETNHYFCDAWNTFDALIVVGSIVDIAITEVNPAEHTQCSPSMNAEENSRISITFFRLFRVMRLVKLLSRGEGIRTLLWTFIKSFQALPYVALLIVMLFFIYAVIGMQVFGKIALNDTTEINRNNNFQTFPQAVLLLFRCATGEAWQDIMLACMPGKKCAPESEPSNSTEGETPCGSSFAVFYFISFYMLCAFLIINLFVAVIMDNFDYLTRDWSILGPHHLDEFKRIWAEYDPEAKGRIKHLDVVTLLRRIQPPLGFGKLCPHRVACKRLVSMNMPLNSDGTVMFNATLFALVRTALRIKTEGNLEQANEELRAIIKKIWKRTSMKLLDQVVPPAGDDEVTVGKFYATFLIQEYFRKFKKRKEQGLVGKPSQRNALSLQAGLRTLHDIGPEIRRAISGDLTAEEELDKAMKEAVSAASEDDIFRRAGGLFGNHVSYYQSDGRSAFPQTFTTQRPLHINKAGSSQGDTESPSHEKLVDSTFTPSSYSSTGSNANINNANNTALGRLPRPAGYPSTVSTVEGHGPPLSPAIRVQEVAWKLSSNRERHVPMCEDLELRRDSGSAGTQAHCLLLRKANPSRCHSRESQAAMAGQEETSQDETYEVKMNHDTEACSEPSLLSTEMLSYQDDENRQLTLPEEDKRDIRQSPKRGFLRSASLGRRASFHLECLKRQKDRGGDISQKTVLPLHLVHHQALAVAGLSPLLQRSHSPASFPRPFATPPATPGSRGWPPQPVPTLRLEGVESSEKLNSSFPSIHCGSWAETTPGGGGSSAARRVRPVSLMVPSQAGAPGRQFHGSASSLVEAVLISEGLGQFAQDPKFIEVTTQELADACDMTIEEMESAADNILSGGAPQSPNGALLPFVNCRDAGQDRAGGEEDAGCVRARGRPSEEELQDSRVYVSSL
Chain of CAV1.2 (Voltage-gated L-type calcium channel) (Q08289 whole entry partner): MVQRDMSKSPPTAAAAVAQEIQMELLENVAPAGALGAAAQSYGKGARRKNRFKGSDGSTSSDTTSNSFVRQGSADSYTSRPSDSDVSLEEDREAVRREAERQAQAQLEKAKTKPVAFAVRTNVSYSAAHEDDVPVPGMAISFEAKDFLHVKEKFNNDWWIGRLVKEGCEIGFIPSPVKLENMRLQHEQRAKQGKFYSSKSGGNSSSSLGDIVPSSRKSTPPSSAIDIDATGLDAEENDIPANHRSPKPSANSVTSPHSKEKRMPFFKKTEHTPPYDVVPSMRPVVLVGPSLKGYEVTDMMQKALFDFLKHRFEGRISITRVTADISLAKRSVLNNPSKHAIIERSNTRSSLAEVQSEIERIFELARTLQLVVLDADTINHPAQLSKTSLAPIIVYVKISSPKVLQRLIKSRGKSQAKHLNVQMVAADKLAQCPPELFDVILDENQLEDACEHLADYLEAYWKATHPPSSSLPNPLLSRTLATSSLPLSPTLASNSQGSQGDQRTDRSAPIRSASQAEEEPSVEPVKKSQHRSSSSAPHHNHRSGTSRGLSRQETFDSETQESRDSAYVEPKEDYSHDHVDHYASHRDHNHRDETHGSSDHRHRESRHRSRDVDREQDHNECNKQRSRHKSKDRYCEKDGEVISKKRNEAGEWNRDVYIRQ
Chain of CAV1.2 (Voltage-gated L-type calcium channel) (P54289 25-956 partner limits assumed): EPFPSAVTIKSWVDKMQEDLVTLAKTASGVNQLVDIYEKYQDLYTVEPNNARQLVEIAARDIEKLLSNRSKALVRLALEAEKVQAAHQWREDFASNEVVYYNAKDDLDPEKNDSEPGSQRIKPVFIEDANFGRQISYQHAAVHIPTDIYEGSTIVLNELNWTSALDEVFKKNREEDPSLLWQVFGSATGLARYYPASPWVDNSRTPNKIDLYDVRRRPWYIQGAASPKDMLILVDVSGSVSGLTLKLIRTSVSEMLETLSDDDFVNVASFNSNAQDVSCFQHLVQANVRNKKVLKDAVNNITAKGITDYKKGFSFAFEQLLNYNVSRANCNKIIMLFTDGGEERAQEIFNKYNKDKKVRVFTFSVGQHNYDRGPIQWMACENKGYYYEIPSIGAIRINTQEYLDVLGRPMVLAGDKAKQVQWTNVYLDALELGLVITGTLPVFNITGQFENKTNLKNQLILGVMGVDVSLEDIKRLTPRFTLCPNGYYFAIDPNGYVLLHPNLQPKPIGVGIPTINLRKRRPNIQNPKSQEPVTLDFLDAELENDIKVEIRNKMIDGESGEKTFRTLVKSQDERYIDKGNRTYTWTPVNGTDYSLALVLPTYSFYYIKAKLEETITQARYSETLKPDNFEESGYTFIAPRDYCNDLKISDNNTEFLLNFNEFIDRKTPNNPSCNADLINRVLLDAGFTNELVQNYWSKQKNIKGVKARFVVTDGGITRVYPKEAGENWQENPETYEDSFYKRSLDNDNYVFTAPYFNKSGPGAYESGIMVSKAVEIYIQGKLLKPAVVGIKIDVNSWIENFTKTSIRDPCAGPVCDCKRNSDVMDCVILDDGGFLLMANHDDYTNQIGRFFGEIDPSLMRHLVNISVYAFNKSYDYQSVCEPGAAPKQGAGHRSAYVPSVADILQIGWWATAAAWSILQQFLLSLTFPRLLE
Chain of CAV1.2 (Voltage-gated L-type calcium channel) (P54289 957-1103 partner limits assumed): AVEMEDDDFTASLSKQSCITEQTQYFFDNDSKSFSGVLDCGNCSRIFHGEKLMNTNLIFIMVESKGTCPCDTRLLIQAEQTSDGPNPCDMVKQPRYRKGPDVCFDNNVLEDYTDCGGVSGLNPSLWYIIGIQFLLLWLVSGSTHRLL

COC(=O)C1=C(C)NC(C)=C(C(=O)OC(C)C)C1c1cccc2nonc12 (stereo not shown) [Isradipine, reference compound]
IC50 [1]: 0.017 µM

CNC(C)Cc1ccn2ccccc12 (stereo not shown) [Compound 26-5, 1-(indolizin-1-yl)-N-methylpropan-2-amine HCl salt]
pEC50 [2]: 7.21

C[C@H](N)Cc1ccccc1 [d-amphetamine, dextroamphetamine]
DAT/NET EC50 ratio (DAT and NET): 0.9

Picrotoxin [reference compound]
IC50 [3]: 2.78 µM

Dihydro-AY-erythroidine [reference compound]
IC50 [4]: 0.682 µM

CNC(C)Cc1ccc2c(c1)OCO2 (stereo not shown) [MDMA]
DAT/SERT IC50 ratio (DAT and SERT): 0.08 | duration of acute therapeutic effects [5]: 4.2 h

CCC(N)Cc1ccn2ccccc12 (stereo not shown) [Compound 27-1, 1-indolizin-1-ylbutan-2-amine HCl salt]
pEC50 [2]: 4.66

CN[C@@H](C)Cc1ccccc1 [d-methamphetamine]
DAT/NET EC50 ratio (DAT and NET): 0.5

CCC(Cc1ccn2ccccc12)NC (stereo not shown) [Compound 25-14, 1-(indolizin-1-yl)-N-methylbutan-2-amine]
pEC50 [2]: 5.57
